One molecule from publication PMC3912015, “Synthetic Multivalent Antifungal Peptides Effective against Fungi” (PLoS ONE, 2014) can be followed below.

One series has as its system C. albicans ATCC 10231. In kind it is cell-based. The conditions noted are these: Candida albicans, 6 h, 5.5 µM. The protocol:
For all the experiments, unless otherwise stated, C. albicans ATCC 10231 strain was used. B4010 (1 mg/mL) was incubated with trypsin (enzyme:peptide ratio 1∶100) at 37°C. 20 µL aliquot of this mixture was withdrawn at various time intervals (0.5, 1, 2, 4 and 6 h) and mixed with 1 µL of trypsin inhibitor. The antifungal activity of the peptide was determined by adding this mixture to 180 µL of inoculum and monitoring the growth at OD600 for 24 h. Similar experiments performed in the presence of trypsin/trypsin inhibitor (without B4010) were used as a positive control. For assessing the antifungal activity in TF, the peptide was dissolved in freshly collected rabbit TF and incubated at 37°C for 6 h. After incubation, an equal volume of an overnight culture of C. albicans (∼10^6 CFU/mL) was mixed with peptides in tear fluid and incubated at 37°C for 24 h. The final concentrations of the peptide were at 4.4, 8.8 and 22 µM. A 100 µL aliquot of serial dilutions (10^2 or 10^3 times) of this mixture were inoculated on a SD agar plate and then incubated for 48 h at 37°C. […]
To study the effects of metal ions, the broth solution containing C. albicans (OD600 = 0.4–0.6) was adjusted to appropriate final concentrations of metal ions, incubated with 5.5 µM of B4010 for 6 h and the cell viability was determined as before after 48 h. […]

A further series concerns F. solani ATCC36031. Kind of series: microbe, parasite or virus in culture. In kind it is cell-based. The conditions noted are these: ATCC36031, 48 h.
Another series has as its system C57BL6 wild type mice. The experiment in a line: In vivo acute toxicity. As for the experimental part:
Acute toxicity of B4010 was assessed with C57BL6 (6–8 weeks old) wild type mice. Two healthy wild type mice were chosen for each routes of administration. B4010 was delivered through intra-peritoneal (200 mg/kg) or (100 mg/kg) intra-venous routes. Two animals were used for each administration and monitored through 24/48 h to determine mortality, or signs of toxicity.

Series [1] relates to clinical isolates of C. albicans 2672R and C. albicans 1976R. Kind of series: MIC against two clinical isolates, with or without 5% human serum. In kind it is cell-based. As to conditions: 48 h. The protocol:
The yeast strains were cultivated and suspended in Sabouraud’s Dextrose (SD) broth diluted to one sixth at a starting OD600 = ∼0.08 in a flat-bottomed microtitre plate. A serial dilution of peptide in the same broth was mixed with the inoculum to give a final peptide concentration of 0.4–22 µM. The antifungal activity was assessed by monitoring the OD600 in cycles of 30 minutes and an orbital shaking at 100 rpm using an Infinite M200 microplate reader (Tecan Group Ltd., Switzerland) for 24/48 h at 37°C. Cultures without peptides were used as positive controls and broth alone or with 22 µM peptide served as negative controls. The minimum concentration required for complete inhibition was assessed by both visible observations as well as by measuring the OD600 and taken as the MIC. Each experiment was repeated in triplicates. For studying the effects of metal ions, SD broth was adjusted with appropriate concentrations of salts to yield a final concentration of 100 and 135 mM for NaCl and KCl and 0.5–2 mM for CaCl2 and MgCl2. MIC determinations were carried out as described above. C. albicans ATCC10231 cells and salts in broth were taken as a positive control. Salts alone (NaCl, KCl, and CaCl2 and MgCl2) in broth or with 22 µM peptide served as a negative control. The effect of 5% human serum on the activities of B4010 against two C. albicans clinical isolates was determined. The human male serum was centrifuged at 13,000 rpm for 10 mins in order to remove the lipids and the supernatant was collected. The MIC values against clinical isolates of C. albicans 2672R and C. albicans 1976R were determined both in standard medium (SD broth) as well as in standard medium containing 5% serum supernatant as before.

Converted amounts (≈) assume the structure as drawn. Bridge positions count the residues as written; N and C are the ends. Peptide text beside a SMILES is read from it. I, II: the chains in the order shown.

In the series on C. albicans ATCC 10231, `CC(C)[C@H](NC(=O)[C@H](CCCCN)NC(=O)[C@H](CCCNC(=N)N)NC(=O)CNC(=O)[C@@H](N)CCCNC(=N)N)C(=O)N[C@H](C(=O)N[C@@H](CCCNC(=N)N)C(=O)N[C@@H](CCCNC(=N)N)C(=O)NCCCC[C@H](NC(=O)[C@H](CCCNC(=N)N)NC(=O)[C@H](CCCNC(=N)N)NC(=O)[C@@H](NC(=O)[C@@H](NC(=O)[C@H](CCCCN)NC(=O)[C@H](CCCNC(=N)N)NC(=O)CNC(=O)[C@@H](N)CCCNC(=N)N)C(C)C)C(C)C)C(=O)NCCCC[C@H](NC(=O)[C@H](CCCCNC(=O)[C@H](CCCNC(=N)N)NC(=O)[C@H](CCCNC(=N)N)NC(=O)[C@@H](NC(=O)[C@@H](NC(=O)[C@H](CCCCN)NC(=O)[C@H](CCCNC(=N)N)NC(=O)CNC(=O)[C@@H](N)CCCNC(=N)N)C(C)C)C(C)C)NC(=O)[C@H](CCCNC(=N)N)NC(=O)[C@H](CCCNC(=N)N)NC(=O)[C@@H](NC(=O)[C@@H](NC(=O)[C@H](CCCCN)NC(=O)[C@H](CCCNC(=N)N)NC(=O)CNC(=O)[C@@H](N)CCCNC(=N)N)C(C)C)C(C)C)C(=O)N[C@@H](CCCCN)C(=O)O)C(C)C` [B4010] (I: H-RGRKVVRRKKK-OH / II: H-RGRKVVRRK / III: H-RGRKVVRR / IV: H-RGRKVVRR; amide I:9-IV:C, I:10-II:C, II:9-III:C; N-terminus and C-terminus assumed) registered a viable cells of 40%. For the same molecule, the MIC in the series with F. solani ATCC36031 was determined as 1.4 µM (≈ 6.39 µg/mL); in series [1], 0.37 µM (≈ 1.69 µg/mL). The acute toxicity result in the series with C57BL6 wild type mice (IP 200 mg/kg) is on record as “no sign of mortality, morbidity or toxicity”; with C57BL6 wild type mice (IV 100 mg/kg) it was “no sign of mortality, morbidity or toxicity”.
